Laboratory results taken from patent US20250388584A1, “TPK AGONIST AND METHOD FOR TREATING NEURODEGENERATIVE DISEASES USING SAME” (SHANGHAI RAISING PHARMACEUTICAL CO., LTD., priority 2022, published 2025).
Structures can show the parent of a compound that is named as a salt. Where two headings read alike, the source gives them in different places.

Biological target: TPK enzyme (Homo sapiens (Human), UniProt Q9H3S4)
Assay: TPK enzyme activity test
Format: biochemical
Conditions: for Emax: calculated with the effect of DMSO on TPK enzyme activity as 100%; for EC50: promoting effect on TPK enzyme activity

Sequence of TPK enzyme (Q9H3S4 whole entry): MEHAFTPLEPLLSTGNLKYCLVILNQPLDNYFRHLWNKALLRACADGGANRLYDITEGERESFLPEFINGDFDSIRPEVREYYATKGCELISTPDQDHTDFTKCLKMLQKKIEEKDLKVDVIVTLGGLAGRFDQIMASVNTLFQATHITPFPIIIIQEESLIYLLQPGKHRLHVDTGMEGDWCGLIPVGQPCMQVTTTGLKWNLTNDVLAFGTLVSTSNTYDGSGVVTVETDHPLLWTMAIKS

Structure (SMILES)	Emax (read-out: Emax)	EC50	Emax
Cc1ccc2[nH]c3c(=O)n(CCC(=O)N4CCN(c5cccc(S(=O)(=O)N6CCCCC6)c5)CC4)cnc3c2c1 [Compound 170, 8-methyl-3-(3-oxo-3-(4-(3-(piperidin-1-ylsulfonyl)phenyl)piperazin-1-yl)propyl)-3,5-dihydro-4H-pyrimido[5,4-b]indol-4-one]	151%	2370 nM	–
COc1cccc(CNC(=O)CCn2cnc3c([nH]c4ccc(C)cc43)c2=O)c1 [Compound 81]	123%	–	–
Cc1ccc2c(c1)-c1ncn(CCCC(=O)N3CCCC(Cc4ccc(F)cc4)C3)c(=O)c1CC2 (stereo not shown) [Compound 223, 3-(4-(3-(4-fluorobenzyl)piperidin-1-yl)-4-oxobutyl)-9-methyl-5,6-dihydrobenzo[h]quinazolin-4(3H)-one]	–	1330 nM	152.22%
Cc1cccc2[nH]c3c(=O)n(CCC(=O)NCc4cccc(C(F)(F)F)c4)cnc3c12 [Compound 77, 3-(9-methyl-4-oxo-4,5-dihydro-3H-pyrimido[5,4-b]indol-3-yl)-N-(3-(trifluoromethyl)benzyl)propanamide]	122%	–	–
Cc1ccc2oc3c(=O)n(CCC(=O)NCc4cccc(C(F)(F)F)c4)cnc3c2c1 [Compound 87, 3-(8-methyl-4-oxobenzofuro[3,2-d]pyrimidin-3(4H)-yl)-N-(3-(trifluoromethyl)benzyl)propanamide]	146%	–	–
Cc1ccc2[nH]c3c(=O)n(CCC(=O)N4CCN(c5ccc(S(=O)(=O)N6CCCCC6)cc5)CC4)cnc3c2c1 [Compound 169, 8-methyl-3-(3-oxo-3-(4-(4-(piperidin-1-ylsulfonyl)phenyl)piperazin-1-yl)propyl)-3,5-dihydro-4H-pyri mid[5,4-b]indol-4-one]	147%	2140 nM	–
Cc1ccc2[nH]c3c(=O)n(CCC(=O)NCc4cccc(C(F)(F)F)c4)ccc3c2c1 [Compound 67, 3-(6-methyl-1-oxo-1,9-dihydro-2H-pyrido[3,4-b]indol-2-yl)-N-(3-(trifluoromethyl)benzyl)propanamide]	187%	1200 nM	–
Cc1ccc2ncc3c(=O)n(CCCC(=O)N4CCN(c5cccc(Cl)c5Cl)CC4)cnc3c2c1 [Compound 217, 3-(4-(4-(2,3-dichlorophenyl)piperazin-1-yl)-4-oxobutyl)-9-methylpyrimido[5,4-c]quinolin-4(3H)-one]	153%	1470 nM	–
Cc1ccc2[nH]c3c(=O)n(CCC(=O)N4CCN(c5ccc(Cl)c(Cl)c5)CC4)cnc3c2c1 [Compound 9, 3-(3-(4-(3,4-dichlorophenyl)piperazin-1-yl)-3-oxopropyl)-8-methyl-3,5-dihydro-4H-pyrimido[5,4-b]indol-4-one]	147%	768 nM	–
Cc1ccc2[nH]c3c(=O)n(CCC(=O)N4CCN(c5cccc(C(=O)O)c5)CC4)cnc3c2c1 [Compound 27, 3-(4-(3-(8-methyl-4-oxo-4,5-dihydro-3H-pyrimido[5,4-b]indol-3-yl)propanoyl)piperazin-1-yl)benzoic Acid]	122%	–	–
CC(=O)c1ccc(N2CCN(C(=O)CCn3cnc4c([nH]c5ccc(C)cc54)c3=O)CC2)cc1 [Compound 35]	126%	–	–
Cc1ccc2[nH]c3c(=O)n(CCC(=O)N4CCN(c5ccc(Cl)cc5Cl)CC4)cnc3c2c1 [Compound 7, 3-(3-(4-(2,4-dichlorophenyl)piperazin-1-yl)-3-oxopropyl)-8-methyl-3,5-dihydro-4H-pyrimido[5,4-b]indol-4-one]	148%	2320 nM	–
Cc1ccc2c(c1)-c1nc(=O)n(CCCN3CCN(c4cccc(Cl)c4Cl)CC3)cc1CO2 [Compound 213, 3-(3-(4-(2,3-dichlorophenyl)piperazin-1-yl)propyl)-9-methyl-3,5-dihydro-2H-chromeno[4,3-d]pyrimidin-2-one]	174%	546 nM	–
Cc1ccc2[nH]c3c(=O)n(CCC(=O)NCCNc4ccc5c(c4)CCCC5)cnc3c2c1 [Compound 131, 3-(8-methyl-4-oxo-4,5-dihydro-3H-pyrimido[5,4-b]indol-3-yl)-N-(2-((5,6,7,8-tetrahydronaphthalen-2-yl)amino)ethyl)propanamide]	193%	–	–
Cc1ccc2c(c1)[nH]c1c(=O)n(CCC(=O)N3CCN(c4ccc(Cl)c(Cl)c4)CC3)cnc12 [Compound 19, 3-(3-(4-(3,4-dichlorophenyl)piperazin-1-yl)-3-oxopropyl)-7-methyl-3,5-dihydro-4H-pyrimido[5,4-b]indol-4-one]	145%	2000 nM	–
O=C(CCn1cnc2c([nH]c3ccc(C(F)(F)F)cc32)c1=O)N1CCN(Cc2cc(F)c(F)c(F)c2)CC1 [Compound 54, 3-(3-oxo-3-(4-(3,4,5-trifluorobenzyl)piperazin-1-yl)propyl)-8-(trifluoromethyl)-3,5-dihydro-4H-pyrimido[5,4-b]indol-4-one]	170%	1680 nM	–
Cc1ccc2[nH]c3c(=O)n(CCCN4CCN(c5cccc(Cl)c5Cl)CC4)cnc3c2c1 [Diformate salt of 52, 3-(3-(4-(2,3-dichlorophenyl)piperazin-1-yl)propyl)-8-methyl-3,5-dihydro-4H-pyrimido[5,4-b]indol-4-one]	195%	1280 nM	–
Cc1ccc2c(c1)[nH]c1c(=O)n(CCC(=O)N3CCN(c4cccc(Cl)c4Cl)CC3)cnc12 [Compound 13, 3-(3-(4-(2,3-dichlorophenyl)piperazin-1-yl)-3-oxopropyl)-7-methyl-3,5-dihydro-4H-pyrimido[5,4-b]indol-4-one]	124%	–	–
Cc1ccc2[nH]c3c(=O)n(CCC(=O)N(C)CCNc4cccc(C(F)(F)F)c4)cnc3c2c1 [Compound 91, N-methyl-3-(8-methyl-4-oxo-4,5-dihydro-3H-pyrimido[5,4-b]indol-3-yl)-N-(2-((3-(trifluoromethyl)phenyl)amino)ethyl)propanamide]	140%	3720 nM	–
Cc1ccc2c(c1)[nH]c1c(=O)n(CCC(=O)N3CCN(c4ccc(Cl)cc4Cl)CC3)cnc12 [Compound 3, 3-(3-(4-(2,4-dichlorophenyl)piperazin-1-yl)-3-oxopropyl)-7-methyl-3,5-dihydro-4H-pyrimido[5,4-b]indol-4-one]	136%	1780 nM	–
Cc1ccc2[nH]c3c(=O)n(CCNC(=O)Cc4cccc(C(F)(F)F)c4)cnc3c2c1 [Compound 72, N-(2-(8-methyl-4-oxo-4,5-dihydro-3H-pyrimido[5,4-b]indol-3-yl)ethyl)-2-(3-(trifluoromethyl)phenyl)acetamide]	122%	–	–
Cc1ccc2[nH]c3c(=O)n(CCC(=O)NCCNc4ccc5ccccc5c4)cnc3c2c1 [Compound 132, 3-(8-methyl-4-oxo-4,5-dihydro-3H-pyrimido[5,4-b]indol-3-yl)-N-(2-(naphthalen-2-ylamino)ethyl)propanamide]	163%	–	–

The remaining lines, values ahead:

Emax (read-out: Emax)	EC50	Emax	Structure (SMILES)
146%	1160 nM	–	Cc1ccc2nc3c(=O)n(CCC(=O)N4CCN(c5cccc(C(F)(F)F)c5)CC4)cnc3cc2c1 [Compound 138, 8-methyl-3-(3-oxo-3-(4-(3-(trifluoromethyl)phenyl)piperazin-1-yl)propyl)pyrimido[5,4-b]quinolin-4(3H)-one]
164%	1110 nM	–	O=C1Cc2ccc(OCCCN3c4ccccc4Sc4ccccc43)cc2N1 [Compound 190, 6-(3-(10H-phenothiazin-10-yl)propoxy)indoline-2-one]
180%	1080 nM	–	Cc1cccc2[nH]c3c(=O)n(CCC(=O)N4CCN(c5cccc(C(F)(F)F)c5)CC4)cnc3c12 [Compound 11, 9-methyl-3-(3-oxo-3-(4-(3-(trifluoromethyl)phenyl)piperazin-1-yl)propyl)-3,5-dihydro-4H-pyrimido[5,4-b]indol-4-one]
128%	–	–	Cc1ccc2[nH]c3c(=O)n(CCC(=O)N4CCN(c5ccccc5C(F)(F)F)CC4)cnc3c2c1 [Compound 4, 8-methyl-3-(3-oxo-3-(4-(2-(trifluoromethyl)phenyl)piperazin-1-yl)propyl)-3,5-dihydro-4H-pyrimido[5,4-b]indol-4-one]
190%	1380 nM	–	Cc1ccc2[nH]c3c(=O)n(CCC(=O)N4CCN(c5cccc(C(F)(F)F)c5)CC4)ccc3c2c1 [Compound 59, 6-methyl-2-(3-oxo-3-(4-(3-(trifluoromethyl)phenyl)piperazin-1-yl)propyl)-2,9-dihydro-1H-pyrido[3,4-b]indol-1-one]
132%	–	–	O=C1c2ccccc2CN1CCCN1CCSc2ccc(C(F)(F)F)cc21 [Compound 197, 2-(3-(6-(trifluoromethyl)-2,3-dihydro-4H-benzo[b][1,4]thiazin-4-yl)propyl)isoindolin-1-one]
–	–	176%	COC(=O)CCC(=O)OCCN1CCN(CCCN2c3ccccc3Sc3ccc(C(F)(F)F)cc32)CC1 [Compound 184, methyl (2-(4-(3-(2-(trifluoromethyl)-10H-phenothiazin-10-yl)propyl)piperazin-1-yl)ethyl) Succinate]
191%	1130 nM	–	O=C1CCCCN1CCCCCCN1c2ccccc2Sc2ccc(C(F)(F)F)cc21 [Compound 187, 1-(6-(2-(trifluoromethyl)-10H-phenothiazin-10-yl)hexyl)piperidin-2-one]
204%	490 nM	–	O=C(O)CCC(=O)OCCN1CCN(CCC(=O)N2c3ccccc3Sc3ccc(C(F)(F)F)cc32)CC1 [Compound 199]
154%	1650 nM	–	O=C(CCn1cnc2c(c1=O)CCCc1ccccc1-2)N1CCN(c2cccc(C(F)(F)F)c2)CC1 [Compound 221, 3-(3-oxo-3-(4-(3-(trifluoromethyl)phenyl)piperazin-1-yl)propyl)-3,5,6,7-tetrahydro-4H-benzo[6,7]cyclohepta[1,2-d]pyrimidin-4-one]
136%	–	–	O=C1CCCCN1CCCCCCN1C(=O)CSc2ccc(C(F)(F)F)cc21 [Compound 195, 4-(6-(2-oxopiperidin-1-yl)hexyl)-6-(trifluoromethyl)-2H-benzo[b][1,4]thiazin-3(4H)-one]
159%	10600 nM	–	Cc1ccc2[nH]c3c(=O)n(CC(=O)NCCCN4CCN(Cc5ccccc5)CC4)ncc3c2c1 [Compound 55]
